According to US12257050B2, “Calibration free in-vivo measurement of analytes using electrochemical sensors” (THE REGENTS OF THE UNIVERSITY OF CALIFORNIA, priority 2017, dated 2025):

Settings: rat, in vivo, iv, 30 mg/kg
Excerpt: The drift-resistance of chronoamperometrically-interrogated E-AB sensors is sufficient to support continuous, real-time measurements directly in situ in the blood of live animals. Aminoglycoside-binding E-AB were fabricated sensors on 75 μm-diameter gold micro-wires, encased in 22-gauge catheters for structural support, and deployed directly in the jugular veins of live rats (FIG. 6A). The plasma pharmacokinetics of the antibiotic tobramycin were monitored following an intravenous administration of 30 mg/kg by performing continuous chronoamperometric measurements for a total of two hours (FIG. 6B). Continuous measurements were achieved by pulsing the potential of the E-AB sensors serially between −0.1 V and −0.3 V, holding each pulse with a duration of only 100 ms. Then, non-linear regression analysis was performed of the current transients generated at −0.3 V to extract current decay lifetimes in real time, and these lifetimes were converted to concentration using the previously determined Langmuir isotherm (FIG. 6C). […]
The sub-second time resolution of chronoamperometrically interrogated E-AB sensors measurement of drug pharmacokinetics with unprecedented precision. The distribution, α, and elimination, β, lifetimes of tobramycin were determined by fitting the in vivo data to a two-compartment pharmacokinetic model. […]

**Q.** Which results are given for `NC[C@H]1O[C@H](O[C@H]2[C@H](O)[C@@H](O[C@H]3O[C@H](CO)[C@@H](O)[C@H](N)[C@H]3O)[C@H](N)C[C@@H]2N)[C@H](N)C[C@@H]1O` [tobramycin]?
**A.** distribution lifetime α (first-order time constant of drug distribution): 3.74 ± 0.04 min; elimination lifetime β (elimination time constant): 69 ± 2 min
